From ChEMBL document CHEMBL1201862, “PubChem BioAssay data set” (2004)
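Grown in 96-well plates, cells were treated for 48 hours with each compound at five concentrations. Insufficient inhibition: endpoint recorded as highest concentration tested. GI50 is the concentration that inhibits growth by half.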 Activity calls are given as the source filed them. Cut-off read from the data, not from the text of the source: active = GI50 up to about 1.1 µM and inactive = higher.

How the values were obtained:
Assay in all cases: NCI tumour cell line growth inhibition, 48 h
M19-MEL = tested on: M19-MEL
RXF 631 = tested on: RXF 631
LXFL 529 = tested on: LXFL 529
XF498 = tested on: XF498
DMS-114 = tested on: DMS-114
HOP-18 = tested on: HOP-18
DMS-273 = tested on: DMS-273
SNB-78 = tested on: SNB-78
MDA-N = tested on: MDA-N

Measured: GI50

CCCN(CCC)c1c([N+](=O)[O-])cc(S(N)(=O)=O)cc1[N+](=O)[O-] [ORYZALIN]
inactive: M19-MEL 20.2 µM | RXF 631 18.6 µM | LXFL 529 16.1 µM | XF498 16.6 µM | DMS-114 19 µM | HOP-18 19.2 µM | DMS-273 18.8 µM

CCN(CC)CCOc1ccc(CCc2cc(OC)c(OC)c(OC)c2)cc1
inactive: M19-MEL 23.8 µM | SNB-78 > 100 µM | RXF 631 53.5 µM | LXFL 529 35.1 µM | XF498 23.7 µM | DMS-114 21.9 µM | HOP-18 > 100 µM | DMS-273 18.2 µM

Oc1ccc2occ3c2c1CCC3
inactive: M19-MEL > 100 µM | SNB-78 > 100 µM | RXF 631 > 100 µM | LXFL 529 > 100 µM | XF498 67 µM | DMS-114 81.8 µM | HOP-18 > 100 µM | DMS-273 > 100 µM

CCCN(CCCC(NC(C)=O)C(=O)NCc1ccccc1)C(=O)N(CCCl)N=O (stereo not given)
inactive: M19-MEL 12.2 µM | SNB-78 15.4 µM | RXF 631 17.4 µM | LXFL 529 18 µM | XF498 9.89 µM | MDA-N > 100 µM | DMS-114 14.4 µM | HOP-18 22.5 µM | DMS-273 4.52 µM

N/C(=N\O)N/N=C/c1ccc(O)c(O)c1
inactive: M19-MEL > 100 µM | SNB-78 > 100 µM | RXF 631 > 100 µM | LXFL 529 > 100 µM | XF498 > 100 µM | DMS-114 > 100 µM | HOP-18 > 100 µM | DMS-273 34.5 µM
